Measured values taken from patent publication US20120270929A1, “MODULATION OF TTC39 EXPRESSION TO INCREASE HDL” (ISIS Pharmaceuticals, Inc., priority 2009, published 2012).
Oligonucleotides are written 5' to 3', each unit as a sugar letter and its base; * is a phosphorothioate linkage, no mark a phosphodiester; rarer units and linkages stand in square brackets, end groups in braces. Plain capitals give the bases only. e = 2'-O-(2-methoxyethyl) (MOE); [5mC] = 5-methylcytosine; d = 2'-deoxy (DNA)

How the values were obtained:
murine TTC39B mRNA [1] = experiment: Antisense inhibition of murine TTC39B in mouse primary hepatocytes, single dose; assay type: cell-based; conditions: 100 nM, cytofectin, ~24 h, vs untreated control; gapmers targeted to SEQ ID NO: 6
Summary of the method: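 Mouse primary hepatocytes transfected by cytofectin with 100 nM 5-10-5 MOE gapmer (20-mer, phosphorothioate, 5-methylcytosine) for ~24 h. TTC39B mRNA quantified by real-time qPCR, normalized to RIBOGREEN total RNA. Values given as percent inhibition versus untreated cells.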

murine TTC39B mRNA [2] = experiment: Dose-dependent antisense inhibition of murine TTC39B in mouse primary hepatocytes (Example 3); assay type: cell-based; conditions: cytofectin, ~16 h
Method: Cells were plated at a density of 10,000 cells per well and transfected using cytofectin reagent with 6.25 nM, 12.5 nM, 25 nM, 50 nM, 100 nM, and 200 nM concentrations of antisense oligonucleotide, as specified in Table 4. After a treatment period of approximately 16 hours, RNA was isolated from the cells and TTC39B mRNA levels were measured by quantitative real-time PCR. Murine primer probe set mTtc39b_LTS00287 was used to measure mRNA levels. TTC39B mRNA levels were adjusted according to total RNA content, as measured by RIBOGREEN®. Results are presented as percent inhibition of TTC39B, relative to untreated control cells.

murine TTC39B mRNA [3] = experiment: In vivo antisense inhibition of murine TTC39B mRNA in liver of C57BL/6 mice; set-up: species or system mouse; conditions: 50 mg/kg/week, 6 weeks, relative to PBS control
Method: (§1) Four groups of five mice each were injected twice a week with 25 mg/kg (totaling 50 mg/kg/week) of ISIS 447114, ISIS 447118, ISIS 447143, or ISIS 447144 for 6 weeks. A control group of five mice was injected with phosphate buffered saline (PBS) twice a week for 6 weeks. Plasma samples were obtained before the start of treatment, at week 3 and at week 6. At the end of the treatment period, mice were fasted for 4 hours before being euthanized. Plasma and tissue samples were obtained for further analysis.
RNA was extracted from liver tissue for real-time PCR analysis of TTC39B using murine primer probe set mTtc39b_LTS00287. […] Results are presented as an average of the percent inhibition of TTC39B, relative to control.

apoA1 mRNA = apoA1 mRNA levels in C57BL/6 mice after TTC39B inhibition; assay type: in vivo, mouse; conditions: 50 mg/kg/week, 6 weeks
Method: as §1
(§2) The effect of inhibition of TTC39B in mice on these proteins of reverse cholesterol transport was studied. RNA levels of ABCA1 were measured using murine primer probe set RTS1204 (forward sequence […], designated herein as SEQ ID NO: 97; reverse sequence […], designated herein as SEQ ID NO: 98; and probe sequence […], designated herein as SEQ ID NO: 99). RNA levels of apoA1 were measured using murine primer probe set RTS14737 (forward sequence […], designated herein as SEQ ID NO: 100; reverse sequence […], designated herein as SEQ ID NO: 101; and probe sequence […], designated herein as SEQ ID NO: 102). RNA levels of SRB1 were measured using murine primer probe set mSRB-1 (forward sequence […], designated herein as SEQ ID NO: 103; reverse sequence ATGCGACTTGTCAGGCTGG, designated herein as SEQ ID NO: 104; and probe sequence […], designated herein as SEQ ID NO: 105).

SRB1 mRNA = SRB1 mRNA levels in C57BL/6 mice after TTC39B inhibition; assay type: in vivo, mouse; conditions: 50 mg/kg/week, 6 weeks
Method: as §1, §2

APOA1 plasma protein = APOA1 plasma protein levels in C57BL/6 mice; assay type: in vivo, mouse; set-up: APOA1 plasma protein levels: unit not given here; conditions: for APOA1 plasma protein % change over the baseline: 6 weeks
Method: as §1

[4] = Plasma glucose in C57BL/6 mice (glucose oxidase assay); assay type: in vivo, mouse
Method: as §1
Plasma glucose values were determined using a Beckman Glucose Analyzer II (Beckman Coulter) by a glucose oxidase assay. As presented in Table 14, there was no significant change in glucose levels after treatment with ISIS oligonucleotides.

[5] = Plasma NEFA and 3-HB in C57BL/6 mice; assay type: in vivo, mouse; set-up: 3-HB levels: unit not given here; conditions: for 3-HB % change over the baseline / NEFA % change over the baseline: 6 weeks
Method: as §1
Effect of antisense inhibition of TTC39B on free fatty acid levels Plasma levels of non-esterified fatty acids (NEFA) and 3-hydroxybutyric acid (3-HB), which are the end-products of fatty acid oxidation, were measured using an automated clinical chemistry analyzer (Olympus Clinical Analyzer).

[6] = Week 0 (before treatment), 50 mg/kg/week

Row | Sequence | % inhibition of murine TTC39B mRNA (murine TTC39B mRNA [1]) [%] | percent inhibition of TTC39B mRNA (murine TTC39B mRNA [2]; 6.25 nM) [%] | percent inhibition of TTC39B mRNA (murine TTC39B mRNA [2]; 12.5 nM) [%] | % inhibition of TTC39B mRNA in liver (murine TTC39B mRNA [3]) [%] | srb1 mRNA levels (effect of TTC39B inhibition) (SRB1 mRNA) | APOA1 plasma protein % change over the baseline (APOA1 plasma protein; 50 mg/kg/week) | APOA1 plasma protein levels (APOA1 plasma protein; [6]) | APOA1 plasma protein levels (APOA1 plasma protein; Week 3, 50 mg/kg/week) | APOA1 plasma protein levels (APOA1 plasma protein; Week 6, 50 mg/kg/week) | glucose levels [4, 6] [mg/dL] | glucose levels ([4]; Week 3, 50 mg/kg/week) [mg/dL] | glucose levels ([4]; Week 6, 50 mg/kg/week) [mg/dL] | 3-HB % change over the baseline ([5]; 50 mg/kg/week) | NEFA % change over the baseline ([5]; 50 mg/kg/week) | 3-HB levels [5, 6] | NEFA levels [5, 6] [mEq/L] | 3-HB levels ([5]; Week 3, 50 mg/kg/week) | NEFA levels ([5]; Week 3, 50 mg/kg/week) [mEq/L] | 3-HB levels ([5]; Week 6, 50 mg/kg/week) | NEFA levels ([5]; Week 6, 50 mg/kg/week) [mEq/L] | further results
1 | CGGATGATTCTTGCTGGTAA (antisense e[5mC]*eG*eG*eA*eT*dG*dA*dT*dT*d[5mC]*dT*dT*dG*d[5mC]*dT*eG*eG*eT*eA*eA) [ISIS 447114] | 73 | 6 | 5 | 49 | −12 | +122% | +9 | +12 | +22 | 293 | 229 | 232 | +184% | +144% | 145 | 0.67 | 109 | 0.49 | 449 | 1.52 | percent inhibition of TTC39B mRNA (murine TTC39B mRNA [2]; 25.0 nM): 34%; percent inhibition of TTC39B mRNA (murine TTC39B mRNA [2]; 50.0 nM): 71%; percent inhibition of TTC39B mRNA (murine TTC39B mRNA [2]; 100.0 nM): 90%; percent inhibition of TTC39B mRNA (murine TTC39B mRNA [2]; 200.0 nM): 93%; apoA1 mRNA levels (effect of TTC39B inhibition) (apoA1 mRNA): −14
2 | GCAGCTCGATTCGGGCATGA (antisense eG*e[5mC]*eA*eG*e[5mC]*dT*d[5mC]*dG*dA*dT*dT*d[5mC]*dG*dG*dG*e[5mC]*eA*eT*eG*eA) [ISIS 447118] | 76 | 0 | 24 | 73 | 0 | +88% | +9 | +13 | +18 | 242 | 271 | 238 | +157% | +90% | 158 | 0.67 | 111 | 0.51 | 406 | 1.18 | percent inhibition of TTC39B mRNA (murine TTC39B mRNA [2]; 25.0 nM): 45%; percent inhibition of TTC39B mRNA (murine TTC39B mRNA [2]; 50.0 nM): 66%; percent inhibition of TTC39B mRNA (murine TTC39B mRNA [2]; 100.0 nM): 77%; percent inhibition of TTC39B mRNA (murine TTC39B mRNA [2]; 200.0 nM): 81%; apoA1 mRNA levels (effect of TTC39B inhibition) (apoA1 mRNA): −23
3 | GCCACCAGTGCCTGCTGAGC (antisense eG*e[5mC]*e[5mC]*eA*e[5mC]*d[5mC]*dA*dG*dT*dG*d[5mC]*d[5mC]*dT*dG*d[5mC]*eT*eG*eA*eG*e[5mC]) [ISIS 447143] | 74 | 7 | 25 | 85 | 0 | +108% | +10 | +15 | +20 | 238 | 231 | 241 | +41% | +109% | 108 | 0.70 | 89 | 0.72 | 222 | 1.30 | percent inhibition of TTC39B mRNA (murine TTC39B mRNA [2]; 25.0 nM): 44%; percent inhibition of TTC39B mRNA (murine TTC39B mRNA [2]; 50.0 nM): 72%; percent inhibition of TTC39B mRNA (murine TTC39B mRNA [2]; 100.0 nM): 88%; percent inhibition of TTC39B mRNA (murine TTC39B mRNA [2]; 200.0 nM): 94%; apoA1 mRNA levels (effect of TTC39B inhibition) (apoA1 mRNA; 50 mg/kg): average increase; apoA1 mRNA levels (effect of TTC39B inhibition) (apoA1 mRNA; listed as 447143, 50 mg/kg): +1
4 | TATTTCTATAGCTCATGACA (antisense eT*eA*eT*eT*eT*d[5mC]*dT*dA*dT*dA*dG*d[5mC]*dT*d[5mC]*dA*eT*eG*eA*e[5mC]*eA) [ISIS 447144] | 69 | – | – | 70 | 0 | +108% | +10 | +14 | +20 | 222 | 239 | 235 | +152% | +101% | 124 | 0.57 | 122 | 0.63 | 398 | 1.25 | apoA1 mRNA levels (effect of TTC39B inhibition) (apoA1 mRNA; 50 mg/kg): average increase; apoA1 mRNA levels (effect of TTC39B inhibition) (apoA1 mRNA; listed as 447144, 50 mg/kg): +50
